Data taken from US8124744B2, “Macrolide derivatives” (Taisho Pharmaceutical Co., Ltd., priority 2006, dated 2012).
Converted amounts (≈) assume the structure as drawn.

Tests used:
pro MMP-9 protein = test: Inhibitory activity against proMMP-9 protein production (TNF α-stimulated mouse peritoneal exudate cells, ELISA); type: cell-based, C57BL/6J mice; conditions: relative activity when the value of Comparative Agent 1 (IC50 = 10.04 ± 4.11 μM) is 10, on the increase of pro MMP-9 by TNF α 25 ng/ml, 24 hours, read-out: IC50 (μM)*
Outline: (§1)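 Peritoneal exudate cells came from male C57BL/6J mice 3 days after i.p. zymosan A; cultured cells got compound (0.02–20 μM final) 1 h before TNFα (25 ng/ml) and supernatant pro MMP-9 was measured by ELISA after 24 h for IC50 against the TNFα-induced increase. MIC was measured against S. aureus ATCC29213.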

[1] = test system: Staphylococcus aureus ATCC29213; test: Minimal inhibitory concentration (MIC); type: cell-based
Outline: as §1

MMP-9 production = conditions: background art, Non-Patent Document 3; read-out: 50% inhibitory concentration (IC50) value, MMP-9 production; cited from earlier work

IC50 (pro MMP-9 protein) [µM]	MIC [1] [µg/mL]	Compound	IC50 (MMP-9 production) [nM]
3.47	> 128	CC[C@H]1OC(=O)[C@H](C)[C@@H](O[C@H]2C[C@@](C)(OC)[C@@H](OC(C)=O)[C@H](C)O2)[C@H](C)[C@@H](O[C@@H]2O[C@H](C)C[C@@H](N3CCOCC3)[C@@H]2N(C)C)[C@@](C)(OC)C[C@@H](C)C(=O)[C@H](C)[C@@H](O)[C@H]1C [Example 209, 4″-O-acetyl-3′-dedimethylamino-2′-deoxy-2′-dimethylamino-3′-(4-morpholino)-6-O-methylerythromycin B]	
4.63	128 (≈ 160 µM)	CC[C@H]1OC(=O)[C@H](C)[C@@H](O[C@H]2C[C@@](C)(OC)[C@@H](O)[C@H](C)O2)[C@H](C)[C@@H](O[C@@H]2O[C@H](C)C[C@@H](N3CCOCC3)[C@@H]2N(C)C)[C@@](C)(OC)C[C@@H](C)C(=O)[C@H](C)[C@@H](O)[C@H]1C [Example 210, 3′-dedimethylamino-2′-deoxy-2′-dimethylamino-3′-(4-morpholino)-6-O-methylerythromycin B]	
2.58	> 128	CC[C@H]1OC(=O)[C@H](C)C(=O)[C@H](C)[C@@H](O[C@@H]2O[C@H](C)C[C@@H](N3CCOCC3)[C@@H]2N(C)C)[C@@](C)(OC)C[C@@H](C)C(=O)[C@H](C)[C@H]2N(CCCCn3cnc(-c4cccnc4)c3)C(=O)O[C@]12C [Example 211, 3,11-dideoxy-5-O-(3′-dedimethylamino-2′-deoxy-2′-dimethylamino-3′-(4-morpholino)desosaminyl)-11-{4-[4-(pyridin-3-yl)-1H-imidazol-1-yl]butyl}-amino-3-oxo-6-O-methylerythronolide A 11,12-cyclic carbamate]	
1.78	> 128	CC[C@H]1OC(=O)[C@H](C)[C@@H](O[C@H]2C[C@@](C)(OC)[C@@H](OC(C)=O)[C@H](C)O2)[C@H](C)[C@@H](O[C@@H]2O[C@H](C)C[C@@H](N3CCOCC3)[C@@H]2N(C)C)[C@@](C)(OC(C)=O)C[C@@H](C)CN(C)[C@H](C)[C@@H](OC(C)=O)[C@]1(C)O [Example 212, 6,11,4″-O-triacetyl-3′-dedimethylamino-2′-deoxy-2′-dimethylamino-3′-(4-morpholino)-9-deoxo-9a-aza-9a-methyl-9a-homoerythromycin A]	
0.77	> 128	CC[C@H]1OC(=O)[C@H](C)[C@@H](O[C@H]2C[C@@](C)(OC)[C@@H](O)[C@H](C)O2)[C@H](C)[C@@H](O[C@@H]2O[C@H](C)C[C@@H](N3CCOCC3)[C@@H]2N(C)C)[C@@](C)(O)C[C@@H](C)CN(C)[C@H](C)[C@@H](O)[C@]1(C)O [Example 213, 3′-dedimethylamino-2′-deoxy-2′-dimethylamino-3′-(4-morpholino)-9-deoxo-9a-aza-9a-methyl-9a-homoerythromycin A]	
2.73	> 128	CC[C@H]1OC(=O)[C@H](C)[C@@H](O[C@H]2C[C@@](C)(OC)[C@@H](OC(C)=O)[C@H](C)O2)[C@H](C)[C@@H](O[C@@H]2O[C@H](C)C[C@H](N(C)CCN(C)C)[C@H]2O)[C@@](C)(OC)C[C@@H](C)C(=O)[C@H](C)[C@@H](O)[C@]1(C)O [Example 214, 4″-O-acetyl-3′-N-demethyl-3′-N-(2-dimethylaminoethyl)-6-methylerythromycin A]	
1.21	> 128	CC[C@H]1OC(=O)[C@H](C)[C@@H](O[C@H]2C[C@@](C)(OC)[C@@H](OC(C)=O)[C@H](C)O2)[C@H](C)[C@@H](O[C@@H]2O[C@H](C)C[C@@H](N3CCOCC3)[C@@H]2N(C)CCN(C)C)[C@@](C)(OC)C[C@@H](C)C(=O)[C@H](C)[C@@H](O)[C@]1(C)O [Example 215]	
2.55	> 128	CC[C@H]1OC(=O)[C@H](C)[C@@H](O[C@H]2C[C@@](C)(OC)[C@@H](O)[C@H](C)O2)[C@H](C)[C@@H](O[C@@H]2O[C@H](C)C[C@@H](N3CCOCC3)[C@@H]2N(C)CCN(C)C)[C@@](C)(OC)C[C@@H](C)C(=O)[C@H](C)[C@@H](O)[C@]1(C)O [Example 216]	
		CC[C@H]1OC(=O)[C@H](C)[C@@H](O[C@H]2C[C@@](C)(OC)[C@@H](O)[C@H](C)O2)[C@H](C)[C@@H](O[C@@H]2O[C@H](C)C[C@H](N(C)C)[C@H]2O)[C@](C)(O)C[C@@H](C)/C(=N\OCOCCOC)[C@H](C)[C@@H](O)[C@]1(C)O [roxithromycin]	≥ 10000
